Residue numbers refer to the chain shown, from its start.
Assays:
[1] = target: T1, AT1 C76A/V116C/C289A mutant receptor (Rattus norvegicus, UniProt P25095, C289A/C76A/V116C); test: competition binding, C76A/V116C/C289A mutant; conditions: for Kd ratio relative to WT (in parentheses): C76A/V116C/C289A / WT; for Kd: C76A/V116C/C289A, COS1 membranes, read-out: Binding affinity (Kd)
T1 construct: expressed in transfected cells; host or cells: COS1 cells (membranes)
T1 sequence (P25095 1-359 C76A/V116C/C289A): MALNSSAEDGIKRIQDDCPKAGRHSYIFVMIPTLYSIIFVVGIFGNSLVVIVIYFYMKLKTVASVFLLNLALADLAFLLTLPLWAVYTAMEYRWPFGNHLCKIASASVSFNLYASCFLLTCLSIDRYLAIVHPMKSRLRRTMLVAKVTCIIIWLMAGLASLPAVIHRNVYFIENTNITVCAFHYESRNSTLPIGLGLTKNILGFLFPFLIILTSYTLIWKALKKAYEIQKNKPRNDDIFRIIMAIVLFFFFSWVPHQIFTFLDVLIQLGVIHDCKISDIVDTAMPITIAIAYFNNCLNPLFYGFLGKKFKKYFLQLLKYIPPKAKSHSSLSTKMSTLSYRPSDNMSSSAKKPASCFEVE
Experimental: (§1) The Kd and Bmax values of receptor binding were determined by ^125I-[Sar^1, Ile^8] […] Membranes expressing the WT or mutant AT1 receptors were incubated with 100 pM ^125I-[Sar^1, Ile^8] […] The binding reaction was terminated by filtering the incubation mixture through Whatman GF/C glass filters, and the residues were extensively washed further with binding buffer. The bound ligand fraction was determined from the counts per minute (cpm) remaining on the membrane. Binding kinetics values were determined as previously described.

[2] = target: T2, AT1 C76A/S115C/C289A mutant receptor (Rattus norvegicus, UniProt P25095, C289A/C76A/S115C); test: competition binding, C76A/S115C/C289A mutant; conditions: for Kd ratio relative to WT (in parentheses): C76A/S115C/C289A / WT; for Kd: C76A/S115C/C289A, COS1 membranes, read-out: Binding affinity (Kd)
T2 construct: expressed in transfected cells; host or cells: COS1 cells (membranes)
T2 sequence (P25095 1-359 C76A/S115C/C289A): T1 sequence (P25095 1-359 C76A/V116C/C289A) with S115C, C116V
Experimental: as §1

[3] = target: T3, AT1 F117A mutant receptor (Rattus norvegicus, UniProt P25095, F117A); test: competition binding, F117A mutant; conditions: for Kd ratio relative to WT (in parentheses): F117A / WT; for Kd: F117A, COS1 membranes, read-out: Binding affinity (Kd)
T3 construct: expressed in transfected cells; host or cells: COS1
T3 sequence (P25095 1-359 F117A): T1 sequence (P25095 1-359 C76A/V116C/C289A) with A76C, C116V, F117A, A289C
Experimental: as §1

[4] = target: T4, AT1 L112A mutant receptor (Rattus norvegicus, UniProt P25095, L112A); test: competition binding, L112A mutant; conditions: for Kd ratio relative to WT (in parentheses): L112A / WT; for Kd: L112A, COS1 membranes, read-out: Binding affinity (Kd)
T4 construct: expressed in transfected cells; host or cells: COS1
T4 sequence (P25095 1-359 L112A): T1 sequence (P25095 1-359 C76A/V116C/C289A) with A76C, L112A, C116V, A289C
Experimental: as §1

[5] = target: T5, AT1 C76A/A114C/C289A mutant receptor (Rattus norvegicus, UniProt P25095, A114C/C289A/C76A); test: competition binding, C76A/A114C/C289A mutant; conditions: for Kd ratio relative to WT (in parentheses): C76A/A114C/C289A / WT; for Kd: C76A/A114C/C289A, COS1 membranes, read-out: Binding affinity (Kd)
T5 construct: expressed in transfected cells; host or cells: COS1 cells (membranes)
T5 sequence (P25095 1-359 C76A/A114C/C289A): T1 sequence (P25095 1-359 C76A/V116C/C289A) with A114C, C116V
Experimental: as §1

[6] = target: T6, AT1 C76A/F110C/C289A mutant receptor (Rattus norvegicus, UniProt P25095, C289A/C76A/F110C); test: competition binding, C76A/F110C/C289A mutant; conditions: for Kd ratio relative to WT (in parentheses): C76A/F110C/C289A / WT; for Kd: C76A/F110C/C289A, COS1 membranes, read-out: Binding affinity (Kd)
T6 construct: expressed in transfected cells; host or cells: COS1
T6 sequence (P25095 1-359 C76A/F110C/C289A): T1 sequence (P25095 1-359 C76A/V116C/C289A) with F110C, C116V
Experimental: as §1

Row | Kd ratio relative to WT (in parentheses) [1] [fold] | Kd [1] [nM] | Kd ratio relative to WT (in parentheses) [2] [fold] | Kd [2] [nM] | Kd ratio relative to WT (in parentheses) [3] [fold] | Kd [3] [nM] | Kd ratio relative to WT (in parentheses) [4] [fold] | Kd ratio relative to WT (in parentheses) ([4]; listed as olmesartan) [fold] | Kd [4] [nM] | Kd ratio relative to WT (in parentheses) [5] [fold] | Kd [5] [nM] | Kd ratio relative to WT (in parentheses) [6] [fold] | Kd [6] [nM] | SMILES
1 | 2.7 | 6.2 ± 1.7 | 2.8 | 6.5 ± 1.8 | 1.1 | 2.5 ± 1.4 | 12 | > 10 | 27 ± 7 | 2.4 | 5.5 ± 2.6 | 2.9 | 6.6 ± 2.4 | CCCc1nc(C(C)(C)O)c(C(=O)O)n1Cc1ccc(-c2ccccc2-c2nnn[nH]2)cc1 [Olmesartan, olmesartan, reference compound]
2 | 3.1 | 2.5 ± 1 | 5.3 | 4.2 ± 1.6 | 1.9 | 1.5 ± 0.04 | 54 |  | 43 ± 12 | 2.0 | 1.6 ± 0.7 | 3.0 | 2.4 ± 1.1 | CCCc1nc(C(C)(C)O)c(C(N)=O)n1Cc1ccc(-c2ccccc2-c2nnn[nH]2)cc1 [R239470]
3 | 0.8 | 39 ± 3 | 14 | 657 ± 114 | 1.1 | 54 ± 19 | 0.6 |  | 31 ± 5 | 2.7 | 128 ± 15 | 2.6 | 126 ± 13 | CCCc1nc(C(C)(C)O)c(C(N)=O)n1Cc1ccc(-c2cc(Cc3ccc(O)cc3)ccc2-c2nnn[nH]2)cc1 [R794847]

— publication PMC3375280 (PLoS ONE, 2012)
